For assay [1], the target named is T1, recombinant human DNA topoisomerase IIα (Homo sapiens, UniProt P11388).
T1 construct: purchased TopoGEN; Inc
Description: Topoisomerase IIα DNA relaxation assay. It counts as biochemical. As to conditions: 0, 10, 25, 50 and 100 μM, supercoiled pBS-SK+ plasmid, 37° C. 30 min, dose dependent. As for the experimental part: The topoisomerase IIα assay was performed, in a reaction mixture containing supercoiled plasmid DNA (pBS-SK+) was isolated using Gen Elute plasmid miniprep kit (Sigma Aldrich), according to manual instructions. ˜200 ng plasmid and two units of recombinant human DNA topoisomerase IIα (TopoGEN. Inc) along with the different concentrations of ASR6 (0, 10, 25, 50 and 100 μM) was added at RT for 5 min; equal amount of DMSO was used as vehicle control. Reaction was carried out at 37° C. for 30 min in a relaxation buffer 1× topo II buffer (50 mM Tris-HCl (pH 8.0), 10 mM NaCl, 10 mM MgCl2, 5 mM ATP, 0.5 mM dithiothreitol and 30 μg BSA/ml) and reactions were terminated by adding 5× stop buffer containing 5% sarkosyl, 0.0025% bromophenol blue, 25% glycerol. The DNA samples were electrophoresed on 1% agarose gel at 45 volts for 4 h with 0.5×TBE (Tris-borate-EDTA). The gels were stained for 30 min in milli Q water containing ethidium bromide (0.5 mg/ml) followed by distaining for 30 min in milli Q water and images were taken. […] VP16 (Topo II inhibitor) were used as positive control (FIG. 6).

Assay [2] concerns the target T2, recombinant human DNA topoisomerase I (Homo sapiens, UniProt P11387).
T2 construct: purchased TopoGEN; Inc
T2 sequence (P11387 1-765): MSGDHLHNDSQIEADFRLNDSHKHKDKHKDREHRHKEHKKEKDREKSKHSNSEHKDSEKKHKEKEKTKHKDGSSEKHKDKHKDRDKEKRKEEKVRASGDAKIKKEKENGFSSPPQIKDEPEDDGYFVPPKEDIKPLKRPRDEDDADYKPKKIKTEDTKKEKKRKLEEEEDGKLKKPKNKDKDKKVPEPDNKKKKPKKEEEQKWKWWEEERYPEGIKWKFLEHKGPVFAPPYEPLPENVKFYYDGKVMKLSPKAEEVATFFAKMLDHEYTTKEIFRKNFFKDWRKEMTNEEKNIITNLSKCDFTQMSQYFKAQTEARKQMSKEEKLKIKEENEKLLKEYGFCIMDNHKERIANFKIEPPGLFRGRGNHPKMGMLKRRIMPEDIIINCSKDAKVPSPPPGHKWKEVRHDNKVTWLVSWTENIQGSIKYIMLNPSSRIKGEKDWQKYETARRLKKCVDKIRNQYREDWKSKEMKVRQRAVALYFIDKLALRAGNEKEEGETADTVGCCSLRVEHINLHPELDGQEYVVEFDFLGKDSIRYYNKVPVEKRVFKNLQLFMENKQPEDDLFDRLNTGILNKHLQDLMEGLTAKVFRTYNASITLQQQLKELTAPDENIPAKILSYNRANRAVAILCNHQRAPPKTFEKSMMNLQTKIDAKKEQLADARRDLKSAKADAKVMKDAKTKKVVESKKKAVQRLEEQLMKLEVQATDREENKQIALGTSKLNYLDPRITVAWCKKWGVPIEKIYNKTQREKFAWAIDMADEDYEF
Description: Topoisomerase I DNA relaxation assay. The assay is classed as biochemical. As to conditions: 0, 10, 25, 50 and 100 μM, supercoiled pBS-SK+ plasmid, 37° C. 30 min. As for the experimental part: In order to determine the ability of ASR6 of topoisomerase I activity assay was performed, in a reaction mixture containing supercoiled plasmid DNA (pBS-SK+) was isolated using Gen Elute plasmid miniprep kit (Sigma Aldrich), according to manual instructions. ˜200 ng plasmid and two units of recombinant human DNA topoisomerase I (TopoGEN. Inc) along with the different concentrations of ASR6 (0, 10, 25, 50 and 100 μM) was added at RT for 5 min; equal amount of DMSO was used as vehicle control. Reaction was carried out at 37° C. for 30 min in a relaxation buffer 1× topoI buffer (50 mM Tris-HCl (pH 8.0), 10 mM NaCl, 10 mM MgCl2, 5 mM ATP, 0.5 mM dithiothreitol and 30 μg BSA/ml) and reactions were terminated by adding 5× stop buffer containing 5% sarkosyl, 0.0025% bromophenol blue, 25% glycerol. The DNA samples were electrophoresed on 1% agarose gel at 45 volts for 4 h with 0.5×TBE (Tris-borate-EDTA). The gels were stained for 30 min in milli Q water containing ethidium bromide (0.5 mg/ml) followed by distaining for 30 min in milli Q water and images were taken (FIG. 5). […] Topotecan (Topo I inhibitor) was used as positive control for topoisomerase I.

Assay [3] concerns Reh. Description: Cytotoxicity (MTT / trypan blue) in Reh cells. The assay is classed as cell-based. As to conditions: Homo sapiens, read-out: Cytotoxicity IC 50 in μM (Cell lines) Reh. The method, then:
Human cancer cell lines, K562, MCF7, HeLa and HEK 293T were purchased from National Centre for Cell Science, Pune, India. Cells were grown in RPMI 1640/MEM/DMEM supplemented with 10% heat-inactivated fetal bovine serum (FBS), 100 U/mL of Penicillin, and 100 μg of streptomycin/mL and incubated at 37° C. in a humidified atmosphere containing 5% CO2.
Nalm6, Molt4 and Reh cells were provided by Dr. Sathees C. Raghavan, Department of Biochemistry, IISc, Bangalore. The cells were grown under the similar culture conditions as mentioned above.
The human T cell leukemia cell line Molt4, Human acute lymphoblastic leukemia (ALL) cell line Nalm6, Human acute myelocytic leukemia (AML) cell line Reh, chronic myelogenous leukemia (CML) cell line K562, Human breast adenocarcinoma cell lines like MCF7 and human kidney cell line HEK 293T (Human embryonic kidney cell line) were selected for the purpose of preliminary anticancer screening of newly synthesized compounds (ASR1 to ASR15). To check the cytotoxicity, trypan blue dye exclusion assays, MTT assay were employed as described earlier Further, Cell cycle analysis, Mitochondrial membrane potential, Annexin-V FITC staining assay were also performed in order to understand the mode of cell death after treatment with ASR6. Further, ASR6 was also tested for its ability to inhibit topoisomerase I and II activity in vitro.
Cytotoxic effect of the newly synthesized compounds against leukemic cells was assessed using 3-(4, 5-dimethyl-2-yl02, 5-diphenyl tetrazolium bromide (MTT) assay. After exposure of compound at different concentration (0.01, 0.1, 0.5, 1, 10, 50 and 100 μM) cells were harvested and transferred into 96 well plate, MTT (5 mg/ml) was added and incubate at 37° C. for 4 h and formazan crystals were dissolved by adding solubilizing agent (10% SDS and 50% dimethyl formamide) for 1 h, finally plate was read at 570 nm (Bio-Rad, USA). Results were represented as inhibition of percentage of cell proliferation in bar diagram (n=3) (FIGS. 1 A, C, E and G).
To determine the growth inhibitory activity of the drug, 0.5×10^5 cell/ml were plated in 24 well (Biofil, USA.) in 1 ml of complete medium and treated with various concentration of the compound to test, cells were stained with 0.4% trypan blue and counted on a hemocytometer after treatment with compounds at 48 and 72 h time point. Results were represented as number of viable cells/ml in bar diagram (FIGS. 1 B, D, F, and H) (n=3).

T1 sequence (P11388 whole entry): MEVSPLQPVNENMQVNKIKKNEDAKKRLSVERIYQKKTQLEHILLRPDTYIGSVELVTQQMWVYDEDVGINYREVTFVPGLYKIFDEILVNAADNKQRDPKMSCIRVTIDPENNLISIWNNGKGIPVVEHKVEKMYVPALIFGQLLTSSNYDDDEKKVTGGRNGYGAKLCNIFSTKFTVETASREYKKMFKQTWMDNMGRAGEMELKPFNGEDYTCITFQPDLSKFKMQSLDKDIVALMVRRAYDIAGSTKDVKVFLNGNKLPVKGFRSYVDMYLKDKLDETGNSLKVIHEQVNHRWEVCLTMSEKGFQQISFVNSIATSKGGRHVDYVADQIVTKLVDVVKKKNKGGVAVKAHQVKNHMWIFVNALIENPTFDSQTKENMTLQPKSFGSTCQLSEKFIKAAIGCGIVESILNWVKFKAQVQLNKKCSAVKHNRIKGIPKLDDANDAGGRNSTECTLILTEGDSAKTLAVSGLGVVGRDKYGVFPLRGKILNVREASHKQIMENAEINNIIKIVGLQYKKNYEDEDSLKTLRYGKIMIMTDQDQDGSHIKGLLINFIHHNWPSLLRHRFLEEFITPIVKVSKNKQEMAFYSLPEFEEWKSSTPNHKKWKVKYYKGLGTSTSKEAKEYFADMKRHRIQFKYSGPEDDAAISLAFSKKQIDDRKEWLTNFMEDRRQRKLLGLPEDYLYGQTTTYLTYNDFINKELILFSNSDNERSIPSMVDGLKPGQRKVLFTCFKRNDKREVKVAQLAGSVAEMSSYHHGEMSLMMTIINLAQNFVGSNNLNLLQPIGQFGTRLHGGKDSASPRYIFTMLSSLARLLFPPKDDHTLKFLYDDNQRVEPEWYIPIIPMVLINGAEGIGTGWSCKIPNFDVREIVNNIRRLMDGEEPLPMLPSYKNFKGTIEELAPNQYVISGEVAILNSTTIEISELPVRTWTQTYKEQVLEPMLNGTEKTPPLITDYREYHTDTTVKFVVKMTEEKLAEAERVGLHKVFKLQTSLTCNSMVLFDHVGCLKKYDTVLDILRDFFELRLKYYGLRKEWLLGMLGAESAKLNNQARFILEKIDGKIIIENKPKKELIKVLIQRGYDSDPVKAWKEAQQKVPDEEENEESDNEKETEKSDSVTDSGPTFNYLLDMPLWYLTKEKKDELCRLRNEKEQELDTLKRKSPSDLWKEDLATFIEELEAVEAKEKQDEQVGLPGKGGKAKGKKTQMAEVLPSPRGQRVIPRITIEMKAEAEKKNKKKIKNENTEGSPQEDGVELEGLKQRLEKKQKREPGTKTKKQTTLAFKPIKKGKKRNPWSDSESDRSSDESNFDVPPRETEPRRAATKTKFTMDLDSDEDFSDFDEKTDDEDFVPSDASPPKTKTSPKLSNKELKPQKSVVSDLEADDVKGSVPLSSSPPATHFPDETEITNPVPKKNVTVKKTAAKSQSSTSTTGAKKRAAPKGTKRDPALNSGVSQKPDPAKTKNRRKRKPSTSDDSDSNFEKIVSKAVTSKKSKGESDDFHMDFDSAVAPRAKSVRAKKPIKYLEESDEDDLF

In the case of `CCOC(=O)c1[nH]c(-c2ccc(Cl)cc2)cc1-c1cccnc1` [ASR6, Ethyl 5-(4-chlorophenyl)-3-(pyridin-3-yl)-1H-pyrrole-2-carboxylate], in assay [1], the “Inhibition of topoisomerase IIα activity (DNA relaxation)” value is on record as “can inhibit topoisomerase Ha enzymatic activity”. The “Inhibition of topoisomerase I activity (DNA relaxation)” value in assay [2] was “does not inhibit topoisomerase I activity”. For the same compound, the IC50 in assay [3] stood at 0.36 µM.

The record behind these values is patent US20180251425A1, “2,3,5 TRISUBSTITUTED PYRROLE DERIVATIVES AS TOPOISOMERASE INHIBITORS AND THERAPEUTIC USES THEREOF” (UNIVERSITY OF MYSORE, priority 2015, published 2018).
